Laboratory results taken from patent US8993624B2, “Method of preventing and treating inflammatory diseases and disorders with abscisic acid” (Virginia Tech Intellectual Properties, Inc., priority 2010, dated 2015).

System: PPAR γ
Assay type: cell-based

CC1=CC(=O)CC(C)(C)C1(O)/C=C/C(C)=C\C(=O)O (single isomer, unassigned; (-)) [(−) ABA]
concentration inducing maximal PPAR γ activation (1.25-10 μM tested, 20 hours): 2.5 µM | PPAR γ activation (relative luciferase activity) (RAW 264.7, 20 hours): activated PPAR γ to a similar degree
